Test results from article PMC8787483 (mBio, 2022).

Target: Gnp2 (CR_09920W) (Candida albicans, UniProt A0A1D8PU37)
Conditions: 10 mM proline as sole carbon source, YNB, ammonium sulfate, pH 4.5, 37 °C, 6 h

Sequence of Gnp2 (CR_09920W) (A0A1D8PU37 entry or part of it): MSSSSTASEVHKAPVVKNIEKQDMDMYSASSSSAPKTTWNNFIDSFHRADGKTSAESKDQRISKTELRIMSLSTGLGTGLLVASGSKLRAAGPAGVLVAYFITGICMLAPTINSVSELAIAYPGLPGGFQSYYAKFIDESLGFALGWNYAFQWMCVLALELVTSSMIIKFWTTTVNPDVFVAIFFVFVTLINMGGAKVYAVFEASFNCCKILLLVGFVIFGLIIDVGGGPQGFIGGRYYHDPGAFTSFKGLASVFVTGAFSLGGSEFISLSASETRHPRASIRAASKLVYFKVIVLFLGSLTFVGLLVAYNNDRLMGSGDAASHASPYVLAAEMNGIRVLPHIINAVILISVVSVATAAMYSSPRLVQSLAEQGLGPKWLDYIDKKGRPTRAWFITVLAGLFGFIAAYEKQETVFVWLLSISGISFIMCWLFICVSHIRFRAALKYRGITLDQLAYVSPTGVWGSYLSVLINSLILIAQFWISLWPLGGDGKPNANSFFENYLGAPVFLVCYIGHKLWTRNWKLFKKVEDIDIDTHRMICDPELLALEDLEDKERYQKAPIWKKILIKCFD

## O=C(O)[C@@H]1CCCN1 [proline]
  LC-MS of extracellular proline, wild type vs gnp2 deletion vs complemented cells: extracellular proline concentration was significantly reduced in the wild type and the GNP2 complemented strain
